From ChEMBL document CHEMBL1149662, “Design and synthesis of a library of tertiary amides: evaluation as mimetics of the melanocortins' active core” (Bioorg Med Chem, 2007) come the findings set out here.

What is called Ki is a dissociation constant, usually derived from enzyme kinetics or from competition with a known ligand.

Structures are written as SMILES.

Experiment [1] deals with Melanocyte-stimulating hormone receptor (Mus musculus, UniProt Q01727). Put plainly: Displacement of [125I]NDP-MSH from MC1 receptor in mouse B16 cells. In kind it is cell-based. On the technique in general: Loss of bound radioactivity is the signal in a displacement assay; it reports binding, not function.
The next experiment concerns the target Melanocortin receptor 4 (Homo sapiens, UniProt P32245). The experiment in a line: Displacement of [125I]NDP-MSH from human recombinant MC4 receptor expressed in Sf9 cells.
Another experiment deals with Melanocortin receptor 5 (Homo sapiens, UniProt P33032). Put plainly: Displacement of [125I]NDP-MSH from human recombinant MC5 receptor expressed in Sf9 cells.
The target of the next experiment is Melanocortin receptor 3 (Homo sapiens, UniProt P41968). Put plainly: Displacement of [125I]NDP-MSH from human recombinant MC3 receptor expressed in Sf9 cells.
Melanocortin receptor 3, sequence (P41968 whole entry): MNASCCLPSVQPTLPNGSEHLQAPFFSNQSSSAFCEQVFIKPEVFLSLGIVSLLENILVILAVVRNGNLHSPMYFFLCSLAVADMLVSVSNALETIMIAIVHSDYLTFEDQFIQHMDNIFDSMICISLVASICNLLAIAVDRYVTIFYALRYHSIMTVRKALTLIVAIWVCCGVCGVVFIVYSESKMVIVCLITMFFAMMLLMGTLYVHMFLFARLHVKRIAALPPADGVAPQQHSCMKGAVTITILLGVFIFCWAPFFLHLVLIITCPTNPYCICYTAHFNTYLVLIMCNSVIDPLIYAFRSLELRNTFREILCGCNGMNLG

Melanocortin receptor 4, sequence (P32245 whole entry): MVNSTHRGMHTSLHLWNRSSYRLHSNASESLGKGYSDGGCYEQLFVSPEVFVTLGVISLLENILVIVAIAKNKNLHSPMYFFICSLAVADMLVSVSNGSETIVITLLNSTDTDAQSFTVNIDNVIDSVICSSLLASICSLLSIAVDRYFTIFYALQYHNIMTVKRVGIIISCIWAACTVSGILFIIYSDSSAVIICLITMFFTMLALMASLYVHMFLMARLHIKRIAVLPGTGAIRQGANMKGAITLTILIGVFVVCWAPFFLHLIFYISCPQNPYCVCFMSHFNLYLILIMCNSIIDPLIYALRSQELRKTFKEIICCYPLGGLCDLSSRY
Melanocyte-stimulating hormone receptor, sequence (Q01727 whole entry): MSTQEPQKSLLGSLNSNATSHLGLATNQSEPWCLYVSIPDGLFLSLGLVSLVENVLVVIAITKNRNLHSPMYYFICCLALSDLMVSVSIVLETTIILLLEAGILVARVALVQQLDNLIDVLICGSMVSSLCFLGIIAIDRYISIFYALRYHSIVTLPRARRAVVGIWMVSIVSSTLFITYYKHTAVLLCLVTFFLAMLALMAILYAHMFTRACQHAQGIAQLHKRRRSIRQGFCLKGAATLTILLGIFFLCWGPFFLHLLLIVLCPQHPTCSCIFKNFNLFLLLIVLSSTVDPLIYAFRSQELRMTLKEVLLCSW
Melanocortin receptor 5, sequence (P33032 whole entry): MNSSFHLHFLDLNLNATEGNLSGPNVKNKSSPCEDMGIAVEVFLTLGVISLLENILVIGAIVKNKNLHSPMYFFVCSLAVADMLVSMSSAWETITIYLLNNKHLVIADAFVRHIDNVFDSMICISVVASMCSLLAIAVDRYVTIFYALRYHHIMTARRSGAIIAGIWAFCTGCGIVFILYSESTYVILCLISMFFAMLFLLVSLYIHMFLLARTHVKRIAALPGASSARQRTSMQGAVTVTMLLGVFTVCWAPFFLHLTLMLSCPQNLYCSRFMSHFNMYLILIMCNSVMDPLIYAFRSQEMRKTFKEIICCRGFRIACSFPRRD

`NC1CCCC(NC(=O)N[C@H]2CC[C@H](N(Cc3ccccc3)C(=O)CCCc3c[nH]c4ccccc34)CC2)C1` (stereo not given in full): the Ki in experiment [1] amounted to 1.8 µM; at Melanocortin receptor 4 it was 11 µM; on Melanocortin receptor 5 it was 52 µM; at Melanocortin receptor 3, 31 µM.
In the same order, the values of `NC(N)=NCCCN(Cc1ccc2ccccc2c1)C(=O)CCCc1c[nH]c2ccccc12` are 1.9 µM, 6 µM, 6.1 µM and 7.5 µM.
Take `CC(c1ccc(C(F)(F)F)cc1)N(CCCCCN)C(=O)Cc1c[nH]c2ccccc12` (stereo not given): the inhibition constant (Ki) in experiment [1] came out at 2.6 µM; at Melanocortin receptor 4 it was 16 µM; at Melanocortin receptor 5 it was 11 µM; at Melanocortin receptor 3, 12 µM.
The like results for `NCCCCCN(CCc1ccc2ccccc2c1)C(=O)Cc1c[nH]c2ccccc12` were, in that order, 4.5 µM, 9.4 µM, 8 µM and 13 µM.
The like results for `CCN(CC)c1ccc(CN(CCCCCN)C(=O)CCCc2c[nH]c3ccccc23)cc1` were, in that order, 6.8 µM, 25 µM, 34 µM and 33 µM.
In the same order, the values of `COc1cc(Br)c(/C=C/CN(C(=O)CCCc2c[nH]c3ccccc23)C2CCC(CC3CCC(N)CC3)CC2)cc1OC` (stereo not given) are 2 µM, 3.2 µM, 266 µM and 14 µM.
As for `NCCN(C(=O)Cc1c[nH]c2ccccc12)C1CCc2ccccc2C1` (stereo not given), the inhibition constant Ki in experiment [1] came out at 4 µM; at Melanocortin receptor 4 it was 42 µM; at Melanocortin receptor 5, 29 µM; at Melanocortin receptor 3, 16 µM.
In the same order, the values of `NCCCCCN(Cc1ccccc1)C(=O)[C@H](N)Cc1ccc2ccccc2c1` are 5 µM, 13 µM, 24 µM and 41 µM.
The like results for `NCCCCCN(Cc1ccccc1)C(=O)[C@@H](N)Cc1c[nH]c2ccccc12` were, in that order, 34 µM, 44 µM, 54 µM and 43 µM.
In the same order, the values of `NC1CCCC(NC(=O)NC2CCCC(N(C/C(Cl)=C/c3ccccc3)C(=O)CCCc3c[nH]c4ccccc34)C2)C1` (stereo not given) are 3.1 µM, 18 µM, 16 µM and 45 µM.
For `COc1ccc(CN(C(=O)CCCc2c[nH]c3ccccc23)C2CCC(CC3CCC(N)CC3)CC2)cc1OC` (stereo not given), the Ki in experiment [1] turned out to be 3.2 µM; at Melanocortin receptor 4 it was 3.7 µM; on Melanocortin receptor 5 it was 8.3 µM; on Melanocortin receptor 3, 22 µM.
For the compound `CSc1ccc(CN(C(=O)CCCc2c[nH]c3ccccc23)C2CCC(CC3CCC(N)CC3)CC2)cc1` (stereo not given), the Ki worked out at 3.2 µM in experiment [1], 4.3 µM at Melanocortin receptor 4, 85 µM on Melanocortin receptor 5 and 249 µM at Melanocortin receptor 3.
In the same order, the values of `NC1CCCC(N(C/C(Cl)=C/c2ccccc2)C(=O)CCCc2c[nH]c3ccccc23)C1` (stereo not given) are 2.8 µM, 2.1 µM, 10 µM and 29 µM.
The like results for `NC1CCC(CC2CCC(N(C/C(Cl)=C/c3ccccc3)C(=O)CCCc3c[nH]c4ccccc34)CC2)CC1` (stereo in doubt; form 2) were, in that order, 0.96 µM, 2 µM, 8.7 µM and 17 µM.
With `Cc1ccc(CN(C(=O)CCCc2c[nH]c3ccccc23)C2CCC(CC3CCC(N)CC3)CC2)cc1` (stereo not given), the Ki in experiment [1] is 1.3 µM; at Melanocortin receptor 4, 2.1 µM; at Melanocortin receptor 5 it was 10 µM; on Melanocortin receptor 3, 220 µM.
In the same order, the values of `C=C(Br)CN(C(=O)CCCc1c[nH]c2ccccc12)C1CCC(CC2CCC(N)CC2)CC1` (stereo in doubt; form 4) are 0.81 µM, 3.8 µM, 5.5 µM and 27 µM.
The like results for `NCCCN1CCN(CCCN(C/C(Cl)=C/c2ccccc2)C(=O)CCCc2c[nH]c3ccccc23)CC1` were, in that order, 4.6 µM, 9.2 µM, 6.6 µM and 78 µM.
As to `NCCCCCCN(Cc1ccccc1)C(=O)CCCc1c(Cc2ccc(O)cc2)[nH]c2ccccc12`, the inhibition constant Ki was determined as 2.3 µM in experiment [1], 3.7 µM on Melanocortin receptor 4, 2.1 µM on Melanocortin receptor 5 and 36 µM at Melanocortin receptor 3.
The like results for `COc1cc(Br)c(CN(C(=O)CCCc2c(Cc3ccc(O)cc3)[nH]c3ccccc23)[C@H]2CC[C@@H](C[C@H]3CC[C@H](N)CC3)CC2)cc1OC` were, in that order, 2.9 µM, 7.4 µM, 9.1 µM and 5.4 µM.
In the same order, the values of `NC1CCC(CC2CCC(N(Cc3ccccc3Br)C(=O)CCCc3c[nH]c4ccccc34)CC2)CC1` (stereo not given) are 3.6 µM, 4.4 µM, 9.1 µM and 80 µM.
The like results for `CCC(c1ccccc1)N(CCCCN)C(=O)CCc1c[nH]c2ccccc12` (stereo not given) were, in that order, 15 µM, 158 µM, 13 µM and 38 µM.
Consider `NC1CCC(CC2CCC(N(Cc3ccccc3F)C(=O)CCCc3c(Cc4ccc(O)cc4)[nH]c4ccccc34)CC2)CC1` (stereo not given), for which the Ki in experiment [1] is 1 µM; at Melanocortin receptor 4 it was 1.5 µM; at Melanocortin receptor 5, 36 µM; on Melanocortin receptor 3 it was 55 µM.
In the same order, the values of `NCCCN(C/C=C/c1ccccc1)C(=O)C(=O)c1c[nH]c2ccccc12` are 1.6 µM, 5 µM, 4.9 µM and 17 µM.
In the same order, the values of `NCCCCCN(C(=O)CCCc1c[nH]c2ccccc12)C1C2CC3CC(C2)CC1C3` (stereo not given) are 6.1 µM, 14 µM, 46 µM and 25 µM.
In the same order, the values of `CC1CC(CC2CCC(N(Cc3ccccc3)C(=O)CCCc3c[nH]c4ccccc34)C(C)C2)CCC1N` (stereo in doubt; form 1) are 0.69 µM, 1.2 µM, 1.7 µM and 4.3 µM.
For the compound `NC1CCC(CC2CCC(N(Cc3ccccn3)C(=O)CCCc3c[nH]c4ccccc34)CC2)CC1` (stereo not given), the inhibition constant (Ki) was determined as 4.6 µM in experiment [1], 5.6 µM at Melanocortin receptor 4, 49 µM at Melanocortin receptor 5 and 39 µM on Melanocortin receptor 3.
The like results for `COc1cc(Br)c(/C=C/CN(C(=O)CCCc2c(Cc3ccc(O)cc3)[nH]c3ccccc23)C2CCC(CC3CCC(N)CC3)CC2)cc1OC` (stereo not given) were, in that order, 0.94 µM, 1.3 µM, 18 µM and 94 µM.
In the same order, the values of `COc1ccc(CN(C(=O)CCCc2c(Cc3ccc(O)cc3)[nH]c3ccccc23)C2CCC(CC3CCC(N)CC3)CC2)cc1OC` (stereo not given) are 1.9 µM, 2.4 µM, 11 µM and 23 µM.
In the same order, the values of `NC1CCC(CC2CCC(N(Cc3ccccc3Cl)C(=O)CCCc3c[nH]c4ccccc34)CC2)CC1` (stereo not given) are 3.2 µM, 2.8 µM, 5.2 µM and 22 µM.
Consider `NCc1ccc(CN(Cc2ccc3ccccc3c2)C(=O)CCCc2c[nH]c3ccccc23)cc1`, for which the Ki in experiment [1] worked out at 4 µM; on Melanocortin receptor 4 it was 11 µM; on Melanocortin receptor 5 it was 17 µM; at Melanocortin receptor 3, 40 µM.
The like results for `Cc1ccccc1CN(C(=O)CCCc1c[nH]c2ccccc12)C1CCC(CC2CCC(N)CC2)CC1` (stereo not given) were, in that order, 1.2 µM, 2.3 µM, 15 µM and 121 µM.
As to `NC1CCC(CC2CCC(N(Cc3ccncc3)C(=O)CCCc3c[nH]c4ccccc34)CC2)CC1` (stereo in doubt; form 2), the Ki in experiment [1] is 6.3 µM; at Melanocortin receptor 4, 5.6 µM; on Melanocortin receptor 5, 96 µM; at Melanocortin receptor 3 it was 172 µM.
In the same order, the values of `N=C(N)NC1CCC(CC2CCC(N(C/C(Cl)=C/c3ccccc3)C(=O)CCCc3c[nH]c4ccccc34)CC2)CC1` (stereo in doubt; form 2) are 2.7 µM, 3.4 µM, 27 µM and 13 µM.
The like results for `NC1CCCC(NC(=O)NC2CCCC(N(Cc3ccccc3)C(=O)CCCc3c[nH]c4ccccc34)C2)C1` (stereo not given) were, in that order, 2.2 µM, 5.3 µM, 49 µM and 57 µM.
The like results for `N=C(N)NCCCN(Cc1ccc2ccccc2c1)C(=O)Cc1c[nH]c2ccccc12` were, in that order, 35 µM, 150 µM, 28 µM and 228 µM.
`CC1CC(CC2CCC(N(Cc3ccccc3)C(=O)CCCc3c[nH]c4ccccc34)C(C)C2)CCC1N` (stereo in doubt; form 4): the Ki is 1.3 µM in experiment [1], 3.8 µM on Melanocortin receptor 4, 5.6 µM on Melanocortin receptor 5 and 12 µM on Melanocortin receptor 3.
The like results for `NCCCCCN(C(=O)COc1ccc2ccccc2c1)C1CCC2(CC=CCC2)CC1` (stereo not given) were, in that order, 7.4 µM, 5.9 µM, 8 µM and 3.7 µM.
In the same order, the values of `Cc1ccc(CN(C(=O)CCCc2c(Cc3ccc(O)cc3)[nH]c3ccccc23)C2CCC(CC3CCC(N)CC3)CC2)cc1` (stereo not given) are 4.7 µM, 1.9 µM, 2.2 µM and 147 µM.
In the same order, the values of `NCCCN(C(=O)c1cc2cc(OCc3ccccc3)ccc2[nH]1)C1CCc2ccccc2C1` (stereo not given) are 26 µM, 21 µM, 681 µM and 542 µM.
For the compound `N[C@H]1CC[C@H](NC(=O)NC2CCCC(N(Cc3ccccc3)C(=O)CCCc3c[nH]c4ccccc34)C2)CC1` (stereo not given in full), the inhibitory constant (Ki) turned out to be 2.7 µM in experiment [1], 7.3 µM on Melanocortin receptor 4, 37 µM on Melanocortin receptor 5 and 59 µM at Melanocortin receptor 3.
